Patent EP4813993A1, “COMPOUND, PREPARATION METHOD THEREFOR, AND USE THEREOF” (Sichuan Kelun Pharmaceutical Research Institute Co., Ltd., priority 2023, dated 2025)
pIC50: −log10 of the molar value.

Columns and labels:
Nav1.8 channels = biological target: T1, Nav1.8 channels (Homo sapiens, UniProt Q9Y5Y9); assay: Manual patch-clamp, current of stably overexpressed Nav1.8 channels (resting state voltage program); type: cell-based
T1 construct: expressed in transfected cells
In short: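 Whole-cell manual patch clamp on cells stably overexpressing Nav1.8, held at -120 mV and stepped to 0 mV for 50 ms every 20 s (resting-state protocol). Compounds were perfused in ascending concentrations, each for 5 min or until stable; block of peak current was calculated at steady state.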

incision pain model [1] = assay: Incision pain model in ICR mice, Von Frey test; type: in vivo; settings: Mean + SEM, n = 10; for PWT 50% value (g) Post-surgery, Preadministration: baseline before administration; for PWT 50% value (g) Pre-surgery: baseline before surgery; for PWT 50% value (g) 0.5 h: 0.5 h after administration; for PWT 50% value (g) 2 h: 2 h after administration; for PWT 50% value (g) 4 h: 4 h after administration
Procedure: Experimental Example 6: Pharmacodynamic effect study of compounds in incision pain model in ICR mice Experimental animals: ICR mice, male, 28-35 g.
Compound preparation: 5% (final preparation volume) of DMSO was added to dissolve the test compound, and then 10% (final preparation volume) of Cremophor EL and 85% Saline were sequentially added.
A plantar incision pain model was established in mice via surgery before the administration and test. Mice were placed in an anesthesia induction chamber and given 3%-4% isoflurane for anesthesia induction. After the anesthesia induction, a breathing mask was applied, and the isoflurane concentration was adjusted to 1%-2% to prevent the mice from suffering pain during the surgery. Each mouse was placed in a supine position, and the surgical site was disinfected with alcohol and iodophor. Under sterile conditions, a 0.5 cm longitudinal incision was made on the left hind paw surface, 0.2 cm away from the heel, extending toward the toes. The skin and fascia were incised; the plantar muscle was separated, slightly lifted, and longitudinally incised. The skin was then sutured with 5-0 sutures and disinfected.
(§1) 2. Administration and test
(§2) The Von Frey test was performed once before the surgery. On the second day after animal modeling, the test was repeated, and animals meeting the baseline requirements were selected for enrollment. The animals were randomly grouped based on the 50% PWT values, with 10 animals per group. Administration was performed under a double-blind test protocol. The 50% PWT of the animals was measured separately before administration (baseline) and at 0.5 h, 2 h, and 4 h after administration, and a single dose was administered. The model control group was given normal saline, while the compound groups were given the compounds according to the administration doses in the table below.

[2] = tested on: CFA-induced rat inflammatory pain model; assay: CFA-induced rat inflammatory pain model, Von Frey test; type: in vivo, SD rats
Procedure: Experimental Example 9: Pharmacodynamic effect study of compounds in CFA-induced rat inflammatory pain model Experimental animals: SD rats, male, 180-220 g.
Compound preparation: 5% (final preparation volume) of DMSO was added to dissolve the test compound, and then 10% (final preparation volume) of Cremophor EL and 85% Saline were sequentially added; an appropriate amount of Celecoxib was weighed, 5% (final preparation volume) of DMSO was added to dissolve the test compound, and then 5% (final preparation volume) of HS-15 and 90% Saline were sequentially added.
SD rats were anesthetized with isoflurane. The right hind paw was disinfected, a needle was inserted subcutaneously at the posterior plantar aspect, and 50 µL of complete Freund's adjuvant (CFA, 1 mg/mL) was administered via subcutaneous injection at the midplantar region, with the needle withdrawn slowly while rotating to prevent leakage. After modeling, local redness and swelling of the soles of the feet, difficulty in walking, and lifting of the affected feet were observed.
as §1
as §2, with “modeling,” for “modeling, the test was repeated, and”, “divided into 6 groups” for “grouped”, “8” for “4”, “administration.” for “administration, and a single dose was administered.”

incision pain model [3] = assay: Incision pain model in ICR mice, Von Frey test; type: in vivo; settings: 50 mg/kg single dose, Mean + SEM, n = 10

T1 sequence (Q9Y5Y9 whole entry): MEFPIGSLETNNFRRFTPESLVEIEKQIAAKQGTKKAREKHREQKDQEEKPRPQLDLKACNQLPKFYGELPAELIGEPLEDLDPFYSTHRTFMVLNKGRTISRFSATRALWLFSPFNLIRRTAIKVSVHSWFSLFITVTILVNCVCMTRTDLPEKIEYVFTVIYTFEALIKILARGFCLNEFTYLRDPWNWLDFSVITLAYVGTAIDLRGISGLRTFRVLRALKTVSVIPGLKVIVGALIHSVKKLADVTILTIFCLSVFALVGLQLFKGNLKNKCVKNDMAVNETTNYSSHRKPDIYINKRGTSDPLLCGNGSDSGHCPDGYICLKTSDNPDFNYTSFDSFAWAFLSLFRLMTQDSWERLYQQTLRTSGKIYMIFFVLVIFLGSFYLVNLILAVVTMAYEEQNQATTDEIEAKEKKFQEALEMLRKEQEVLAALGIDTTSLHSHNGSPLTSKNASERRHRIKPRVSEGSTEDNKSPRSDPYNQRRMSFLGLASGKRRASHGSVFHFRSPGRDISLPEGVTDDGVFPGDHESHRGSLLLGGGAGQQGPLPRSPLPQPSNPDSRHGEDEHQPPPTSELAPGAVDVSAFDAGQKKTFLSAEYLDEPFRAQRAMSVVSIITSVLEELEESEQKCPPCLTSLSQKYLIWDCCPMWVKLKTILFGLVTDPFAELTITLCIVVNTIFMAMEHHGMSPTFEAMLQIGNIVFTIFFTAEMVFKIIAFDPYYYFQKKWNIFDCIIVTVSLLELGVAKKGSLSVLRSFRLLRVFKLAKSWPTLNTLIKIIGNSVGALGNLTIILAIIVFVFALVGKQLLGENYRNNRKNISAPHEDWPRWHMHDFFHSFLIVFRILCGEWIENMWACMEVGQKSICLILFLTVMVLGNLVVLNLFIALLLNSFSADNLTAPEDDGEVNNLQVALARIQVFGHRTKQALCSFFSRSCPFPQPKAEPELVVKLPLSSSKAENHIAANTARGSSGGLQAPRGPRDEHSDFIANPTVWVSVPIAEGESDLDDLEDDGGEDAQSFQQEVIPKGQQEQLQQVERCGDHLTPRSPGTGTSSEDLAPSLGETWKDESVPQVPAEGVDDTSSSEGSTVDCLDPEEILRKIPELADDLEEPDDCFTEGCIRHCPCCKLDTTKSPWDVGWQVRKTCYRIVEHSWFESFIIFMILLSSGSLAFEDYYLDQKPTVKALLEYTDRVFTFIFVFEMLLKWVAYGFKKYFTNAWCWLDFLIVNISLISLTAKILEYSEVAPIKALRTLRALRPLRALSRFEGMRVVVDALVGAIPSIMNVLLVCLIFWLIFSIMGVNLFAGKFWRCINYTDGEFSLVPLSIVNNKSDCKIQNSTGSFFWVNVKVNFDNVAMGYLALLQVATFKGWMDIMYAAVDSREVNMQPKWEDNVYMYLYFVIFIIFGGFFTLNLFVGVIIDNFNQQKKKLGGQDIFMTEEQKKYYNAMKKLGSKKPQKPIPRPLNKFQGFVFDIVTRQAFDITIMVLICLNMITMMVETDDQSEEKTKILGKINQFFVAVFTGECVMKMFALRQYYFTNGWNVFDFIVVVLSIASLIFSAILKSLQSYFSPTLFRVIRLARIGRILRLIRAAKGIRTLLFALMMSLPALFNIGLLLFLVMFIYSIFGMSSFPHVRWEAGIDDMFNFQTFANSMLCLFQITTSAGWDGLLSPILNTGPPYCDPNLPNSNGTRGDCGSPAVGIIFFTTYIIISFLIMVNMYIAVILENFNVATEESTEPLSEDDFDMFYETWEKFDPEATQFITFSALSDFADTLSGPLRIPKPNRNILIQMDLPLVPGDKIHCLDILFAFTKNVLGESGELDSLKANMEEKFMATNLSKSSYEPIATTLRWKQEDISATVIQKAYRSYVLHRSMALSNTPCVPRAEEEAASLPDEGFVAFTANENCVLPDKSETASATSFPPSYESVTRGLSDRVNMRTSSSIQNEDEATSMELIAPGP

For COc1c(C2CC(C)(C(F)(F)F)SC2C(=O)Nc2ccnc(C(N)=O)c2)ccc(F)c1F (single isomer, unassigned) [Compound 139-A, 4-(3-(3,4-difluoro-2-methoxyphenyl)-5-methyl-5-(trifluoromethyl)tetrahydrothiophene-2-carboxamido)picolinamide], the pIC50 (Nav1.8 channels) was 10.22, the Inhibition rate (%) (Nav1.8 channels; concentration of 10 nM, 0.01 µM) was 95.31% and the “PWT 50% value (g) Post-surgery, Preadministration” value (from here on “PWT 50% value (g) Post-surgery”) (incision pain model [1]; 50 mg/kg group) was 0.22 ± 0.03 g. For the same compound, the “PWT 50% value (g) Pre-surgery” value (incision pain model [1]; 50 mg/kg group) was 1.39 ± 0.31 g, the “PWT 50% value (g) 0.5 h” value (incision pain model [1]; 50 mg/kg single dose) was 0.74 ± 0.3 g and the “PWT 50% value (g) 2 h” value (incision pain model [1]; 50 mg/kg single dose) was 1.05 ± 0.38 g. The “PWT 50% value (g) 4 h” value (incision pain model [1]; 50 mg/kg single dose) was 0.74 ± 0.29 g, the “PWT 50% value (g) Post-surgery” value (incision pain model [1]; 125 mg/kg group) was 0.22 ± 0.02 g and the “PWT 50% value (g) Pre-surgery” value (incision pain model [1]; 125 mg/kg group) was 1.25 ± 0.31 g. The “PWT 50% value (g) 0.5 h” value (incision pain model [1]; 125 mg/kg single dose) was 0.82 ± 0.33 g, the “PWT 50% value (g) 2 h” value (incision pain model [1]; 125 mg/kg single dose) was 1.09 ± 0.32 g and the “PWT 50% value (g) 4 h” value (incision pain model [1]; 125 mg/kg single dose) was 0.87 ± 0.16 g. The “PWT 50% value (g) AUC0-8h” value (incision pain model [1]; 125 mg/kg single dose) was 6.08 ± 1.2 g·h, the “analgesic activity compared with the positive control Celecoxib” value ([2]; CFA-induced rat inflammatory pain model) was “superior to the positive control Celecoxib” and the “PWT 50% value (g) Post-surgery” value ([2]; SD rats CFA, 125 mg/kg group, baseline before administration, Mean + SEM, n = 10) was 3.1 ± 1.12 g. For the same compound, the “PWT 50% value (g) Pre-surgery” value ([2]; SD rats CFA, 125 mg/kg group, baseline before modeling, Mean + SEM, n = 10) was 12.61 ± 3.5 g, the “PWT 50% value (g) Time 0.5 h” value ([2]; SD rats CFA, 125 mg/kg, 0.5 h after administration, Mean + SEM, n = 10) was 6.78 ± 5.47 g and the “PWT 50% value (g) Time 2 h” value ([2]; SD rats CFA, 125 mg/kg, 2 h after administration, Mean + SEM, n = 10) was 6.54 ± 3.06 g. For the same compound, the “PWT 50% value (g) Time 8 h” value ([2]; SD rats CFA, 125 mg/kg, 8 h after administration, Mean + SEM, n = 10) was 3.6 ± 1.5 g, the “PWT 50% value (g) AUC0-8h” value ([2]; SD rats CFA, 125 mg/kg, Mean + SEM, n = 10) was 40.83 ± 12.03 g and the “PWT 50% value (g) AUC0-8h” value (incision pain model [3]) was 5.45 ± 1.62 g·h.
